“Also recorded” adds a separate entry of the source.
Columns and labels:
miR-221/222 [1] = assay: miR-221 and miR-222 levels in injured femoral arteries by quantitative real-time PCR; assay type: in vivo; settings: diabetic mice; Pluronic gel on injured femoral artery; 7 days
Experimental: FIG. 7. Diabetes induces an increase in miR-221/222 levels in arteries. Total RNA was prepared from injured femoral arteries of diabetic and non-diabetic mice receiving a Pluronic gel containing either control oligonucleotide (NT) or 2′OMe-miR-222 (AS) for 7 days. Levels of miR-221 and miR-222 were measured using quantitative real-time PCR with U6 as a loading control. Data is normalized to the ND. Data represent the mean±SEM and † indicates p<0.05 by ANOVA using Tukey's HSD.

p27^Kip1 = assay: p27Kip1 protein ELISA in injured femoral arteries; assay type: in vivo; settings: diabetic mice; Pluronic gel on injured femoral artery; 7 days
Experimental: FIG. 9. Diabetes induces an increase in miR-221/222 that reduces p27^Kip1 levels in arteries Protein lysates were prepared from injured femoral arteries of diabetic and non-diabetic mice receiving a Pluronic gel containing either control oligonucleotide (NT) or 2′OMe-miR-222 (AS) after 7 days. Levels of p27^Kip1 protein levels were measured using an ELISA kit. Data is normalized to the ND. Data represent the mean±SEM and † indicates p<0.05 by ANOVA using Tukey's HSD.

[2] = test system: diabetic and non-diabetic mice; assay: Femoral artery wire injury, neointima formation / intimal thickening; assay type: in vivo
Experimental: FIG. 1. Neointimal hyperplasia is increased in an mTOR-independent manner in diabetic mice. Femoral artery wire injury was performed in the mice in diabetic mice (DM) and non-diabetic mice […] and neointima formation was assessed at 14 days post-injury. […] Data represent the mean±SEM. † indicates p<0.05 by ANOVA with Tukey's HSD.
FIG. 10. Diabetes induces an increase in miR-221/222 that increases intimal thickening. Intimal thickening was measured in the wire injured femoral arteries of diabetic and non-diabetic mice receiving a Pluronic gel containing either control oligonucleotide (NT) or 2′OMe-miR-222 (AS) after 14 days. Data represent the mean±SEM and † indicates p<0.05 by ANOVA using Tukey's HSD.
FIG. 14. […] Mean intima:media ratios of ND and DM mice following femoral artery wire injury and implantation of a Pluronic-F 127 gel containing either vehicle or rapamycin (100 μg) with and without administration of the ERK pathway inhibitor, U0126 (7.5 mg/kg/d). Bars indicate p<0.05 by ANOVA.

miR-221/222 [3] = assay: miR-221/222 levels in VSMCs incubated with AMPK agonist; assay type: cell-based; settings: VSMCs from diabetic mice; 3 h incubation
Experimental: FIG. 11. The increase in miR-221/222 in VSMCs from the DM mice is reversed by AMPK activation. miR-221/222 levels were measured in VSMCs from non-diabetic and diabetic mice incubated with vehicle (Con) and the AMPK agonist, Metformin (Met) for 3 h. Data represent the mean±SEM.
FIG. 12. The increase in miR-221/222 in VSMCs from the DM mice is reversed by AMPK activation. miR-221/222 levels were measured in VSMCs from non-diabetic and diabetic mice incubated with vehicle (Con) and the AMPK agonist, AICAR for 3 h. Data represent the mean±SEM.

miR-221/222 [4] = assay: miR-221/222 levels in internal mammary arteries of coronary artery bypass patients by real-time PCR; assay type: in vivo, human; settings: diabetic patients currently taking metformin (DMMet+), coronary artery bypass surgery
Experimental: FIG. 13. miR-221/222 are reduced in the vasculature of diabetic patients taking the AMPK agonist metformin. miR-221/222 levels were measured using real-time PCR methods in the internal mammary arteries of non-diabetic (ND), diabetic subjects currently taking metformin (DMMet+), and diabetic subjects not taking metformin (DMMet−) undergoing coronary artery bypass surgery. […] Data represent the mean±SEM.

miR-221/222 [5] = settings: diabetic mice; 3 d post-injury or sham
Experimental: FIG. 6. […] Femoral artery wire injury or sham procedure was performed in the non-diabetic (ND) and diabetic (DM) mice and miR-221 levels were measured 3d post-injury. A group of MF-12 mice (Sham+EI) received a MEK1 inhibitor (U0126, […]). Data represent the mean±SEM.

non-diabetic animals = settings: previous reports (9); cited from earlier work
p27^Kip1 mRNA = assay: Half-life of p27Kip1 mRNA in serum-stimulated VSMCs; assay type: cell-based; settings: VSMCs from diabetic mice stimulated with serum
Experimental: FIG. 4. Increased ERK activation promotes loss of p27^Kip1 in diabetic mice. A) The ratio of phosphorylated (active) ERK to total ERK in the aortae of non-diabetic (ND) mice and diabetic mice receiving either vehicle (DM) or the ERK pathway inhibitor (DM+EI) U0126, ip, 7.5 mg/kg/d for 3 days). p27^Kip1 protein (B) and mRNA (C) levels in the same mice as in A. D and E) The half-life of p27^Kip1 mRNA in VSMCs from DM and ND mice stimulated with serum with and without the ERK pathway inhibitor PD98059 (D,PD) or siRNA targeting ERK (E, ERK siRNA). † indicate p<0.05 by ANOVA (B and D) or Student's t-test (E and F).

**Q.** With “2′OMe-miR-222: silencing RNA, 2′-O-methylated, directly inhibiting miR-221/222; sequence 5′-ACCCAGUAGCCAGAUGUAGCU-3′ (likely SEQ ID NO 4) (all 2'-O-methyl, backbone not given here)” as the compound, how does the “miR-221/222 levels in the vasculature” value (miR-221/222 [1]) read?
**A.** The value was “reduces miR-221/222 levels back to normal”.

**Q.** And the p27Kip1 protein levels (p27^Kip1)?
**A.** The p27Kip1 protein levels was “restores levels of p27^Kip1 protein to normal levels”.

**Q.** What about the intimal thickening ([2]; diabetic mice, Pluronic gel on wire injured femoral artery, 14 days) of the same compound?
**A.** Its intimal thickening is “effective at reducing intimal thickening in the diabetic mice to levels similar to that of normal mice”.

**Q.** Which “miR-221/222 levels in VSMCs” value (miR-221/222 [3]) does the source give for `CN(C)C(=N)N=C(N)N` [metformin] here?
**A.** The value was “effective in reducing miR-221/222 in the VSMCs from diabetic mice to levels similar to VSMCs from non-diabetic mice”.

**Q.** What about the “miR-221/222 levels in internal mammary arteries” value (miR-221/222 [4]) of the same compound?
**A.** Its value is “normal levels”.

**Q.** With `N#CC(=C(/N)Sc1ccccc1N)/C(C#N)=C(\N)Sc1ccccc1N` [U0126] as the compound, how does the “increase in miR-221/222 levels in the vasculature” value (miR-221/222 [5]) read?
**A.** Its value is “blocked”.

**Q.** What about the “intimal hyperplasia following wire injury” value ([2]; diabetic mice, U0126 7.5 mg/kg/d) of the same compound?
**A.** The value was “reduces intimal hyperplasia”.

**Q.** What about the “sensitivity of intimal thickening to rapamycin” value ([2]; diabetic mice, U0126 7.5 mg/kg/d co-administered with local rapamycin 100 μg, 7.5 mg/kg/day) of the same compound?
**A.** The value was “restores sensitivity to rapamycin; also recorded: restores the ability of rapamycin to intimal thickening”.

**Q.** And the “intimal thickening (intima:media ratio)” value ([2]; non-diabetic mice, U0126 7.5 mg/kg/d co-administered with local rapamycin)?
**A.** Its value is “minimal effects”.

**Q.** For `COc1cccc(-c2cc(=O)c3ccccc3o2)c1N` [PD98059], which “cell proliferative aspect of intimal thickening following arterial injury” value (non-diabetic animals) is on record?
**A.** Its value is “not effective”.

**Q.** And the “accelerated degradation (half-life) of p27Kip1 mRNA” value (p27^Kip1 mRNA)?
**A.** The value was “effective at blocking the accelerated degradation”.

**Q.** Which “miR-221/222 levels in VSMCs” value (miR-221/222 [3]) does the source give for `NC(=O)c1ncn([C@@H]2O[C@H](CO)[C@@H](O)[C@H]2O)c1N` [AICAR] here?
**A.** Its value is “effective in reducing miR-221/222 in the VSMCs from diabetic mice to levels similar to VSMCs from non-diabetic mice”.
